US20170173114A1, “METHODS AND COMPOSITIONS FOR INDUCTION OF UCP1 EXPRESSION” (Joslin Diabetes Center, Inc., priority 2014, published 2017)

What was measured:
Assay type in all cases: cell-based, murine
WT-1 brown preadipocytes [1] = assay: 2-deoxy-[3H]glucose uptake in WT-1 brown preadipocytes; conditions: growth media, two days
Procedure: The following glucose uptake assay was used to determine whether FGF6 could impact cellular glucose uptake. Specifically, glucose uptake was monitored in WT-1 brown preadipocytes and 3T3-F442A white preadipocytes in the presence or absence of FGF6. After serum starvation in DMEM/H medium containing 1% of BSA for 2-3 h, cells were washed with HEPES buffer and then incubated with or without 100 nM insulin for 30 min in DMEM/H medium containing 1% of BSA. Glucose transport was determined by the addition of 2-deoxy-[3H]glucose (0.1 mM, 0.5 μCi/mL; PerkinElmer Life and Analytical Science, Waltham, Mass.). After 5 minutes of incubation, the reaction was stopped by ice-cold PBS and cells were washed twice with ice-cold PBS. Cells were then lysed in 0.1% SDS, and glucose uptake was assessed in 4 mL of scintillant using Beckman LS6500 scintillation counter (Beckman Coulter, Indianapolis Ind.). Nonspecific 2-deoxy-[3H]glucose uptake was measured in the presence of cytochalasin B (20 μM) and was subtracted from the total uptake to get specific glucose uptake. Results were expressed as the mean±s.e.m. of the indicated number of experiments. The protein content was determined by the Bradford method.
(§1) The role of PGs in regulating mitochondrial function and cellular glucose uptake was also assessed. […]

WT-1 brown preadipocytes [2] = assay: Seahorse Bioanalyzer cellular respiration in WT-1 brown preadipocytes; conditions: growth media, two days
Excerpt: The Seahorse XF24 (Seahorse Bioscience, http://www.seahorsebio.com/) was utilized for respirometry to measure oxygen consumption rates (OCR; indicating oxidative phosphorylation) and extracellular acidification rates (ECAR; indicating extracellular pH) in mature brown adipocytes. The cell plates and assay cartridges for the Seahorse XF24 have four ports allowing for drug delivery to individual wells during measurement of the metabolic parameters. For a typical bioenergetic profile, cells are first treated with oligomycin to block ATP synthase, FCCP as an uncoupler and Rotenone to block Complex 1 of the ETC (all from Sigma). Example 2 provides additional details regarding the general method. […]
A profile of cellular respiration was developed by utilizing well-characterized mitochondrial toxins, as described in FIG. 5B. First, basal respiration was measured, followed by injection of oligomycin (an inhibitor of ATP synthase which allows measurement of ATP turnover). Then, the uncoupler FCCP (carbonilcyanide p-triflouromethoxyphenylhydrazone) was injected to measure respiratory capacity, followed by the complex 1 inhibitor rotenone (which prevents electron transfer activity and leaves only non-mitochondrial activity to be measured). […]
as §1

LDHA, PDK1, PKM2 = assay: LDHA, PDK1 and PKM2 mRNA expression in WT-1 cells; conditions: WT-1, 24 hours; vs vehicle
Procedure: (§2) To test the role of specific prostaglandins (PGs) in activating UCP1 expression, WT-1 brown adipocytes were pretreated with PGE2, PGI2 and FGF6 for 24 hours. mRNA expression levels of UCP1, PTGS2, LDHA, PDK1 and PKM2 were then measured.

PTGS2 (COX2) = assay: PTGS2 mRNA / COX2 protein expression in WT-1 brown preadipocytes; conditions: WT-1, 24 hours; vs vehicle
Procedure: Total RNA was isolated with QIAzol lysis reagent (Qiagen, Valencia, Calif.) and purified by RNeasy Mini columns (Qiagen) following the manufacture's instructions. cDNA was prepared from total RNA using the Advantage RT-PCR kit (BD Biosciences, Palo Alto, Calif.) according to manufacturer's instructions. Diluted cDNA was used in a PCR reaction with SYBR Green Master Mix (Applied Biosystems, Foster City, Calif.) and primers specifically designed for detection of the gene of interest. PCR reactions were run in duplicate for each sample and quantitated in the ABI Sequence Detection System (Applied Biosystems). Data were expressed as arbitrary units after normalization to levels of expression of internal controls for each sample. Sequences of primers for specific genes are each obtained from the published literature or designed using publically available gene sequence databases. Unless otherwise indicated, gene expression data described in the examples below was obtained using QPCR.
Cells were harvested in lysis buffer (50 mM HEPES, 137 mM NaCl, 1 mM MgCl2, 1 mM CaCl2, 10 mM Na2P2O7, 10 mM NaF, 2 mM EDTA, 10% glycerol, 1% Igepal CA-630, 2 mM vanadate, 10 μg/ml of leupeptin, 10 μg/ml of aprotinin, 2 mM phenylmethylsulfonyl fluoride; pH 7.4). After lysis, lysates were clarified by centrifugation at 12,000×g for 20 min at 4° C., the amount of protein in the supernatants was determined by the Bradford Protein Assay (Bio-Rad Laboratories, Hercules, Calif.). Proteins were directly solubilized in Laemmli sample buffer. Equal amounts of lysates were separated by sodium dodecyl sulfate-polyacrylamide gel electrophoresis and transferred to Immobolin-P membranes. […] Specifically bound primary antibodies were detected with peroxidase-coupled secondary antibody and enhanced chemiluminescence (ECL, Amersham Biosciences, Piscataway, N.J.).
To determine if FGF4, FGF5, FGF6, FGF10, FGF16, FGF17, FGF18 or FGF20 induced either UCP1 mRNA or PTGS2 mRNA expression, murine brown preadipocyte WT-1 cells (Tseng et al., Nat. Cell. Biol. (2005) 7(6):601-611) were grown in growth media (DMEM-high glucose+10% FBS) supplemented with FGF4, FGF5, FGF6, FGF10, FGF16, FGF17, FGF18, FGF20 or buffer (control) in combination with insulin (20 nM) and triidothyronine (T3, 1 nM) for three days. All FGFs were used at a dosage of 200 ng/mL. mRNA was isolated and UCP1 and PTGS2 gene expression levels were evaluated by quantitative reverse transcription polymerase chain reaction (Q-RT-PCR) analysis. […]
as §2

Row | SMILES | glucose uptake in WT-1 brown preadipocytes (WT-1 brown preadipocytes [1]) | oxygen consumption in WT-1 brown preadipocytes (WT-1 brown preadipocytes [2]) | LDHA mRNA expression (LDHA, PDK1, PKM2) | PDK1 mRNA expression (LDHA, PDK1, PKM2) | PKM2 mRNA expression (LDHA, PDK1, PKM2) | PTGS2 mRNA expression (PTGS2 (COX2))
1 | CCCCC[C@H](O)/C=C/[C@@H]1[C@H]2C/C(=C/CCCC(=O)O)O[C@H]2C[C@H]1O [PGI2, reference compound] | enhanced | enhanced | increase | increase | increase | significantly induced
2 | CCCCC[C@H](O)/C=C/[C@H]1[C@H](O)CC(=O)[C@@H]1C/C=C\CCCC(=O)O [PGE2, reference compound] | enhanced | enhanced | increase | increase | increase | significantly induced
